From the NIST ThermoML archive (doi:10.1016/j.jct.2016.04.008)

Settings: Liquid; for mass density: 100 kPa, Buoyancy - hydrostatic balance with magnetic suspension - one sinker

CCCCCn1cc[n+](C)c1.F[B-](F)(F)F [1-methyl-3-pentyl-imidazolium tetrafluoroborate]
Settings | mass density [kg/m3]
263.11 K | 1196.7
268.47 K | 1193.07
273.58 K | 1189.42
278.77 K | 1185.81
283.09 K | 1182.43
288.3 K | 1178.63
292.92 K | 1175.26
298.19 K | 1171.74
303.03 K | 1168.37
308.1 K | 1164.61
313 K | 1161.19
318.13 K | 1157.51
323.84 K | 1154.03
328.48 K | 1150.65
333.48 K | 1147.02
338.25 K | 1143.81
342.51 K | 1140.95
348.51 K | 1137.46
354.03 K | 1133.59
358.73 K | 1130.69
365.22 K | 1126.55

surface tension liquid-gas [mN/m]
Settings | Ring tensiometer | Willhelmy plate method
263.64 K | 43.08 | –
269.34 K | 42.79 | –
273.78 K | 42.67 | –
278.75 K | 42.24 | –
283.06 K | – | 41.81
283.1 K | 42.19 | –
288.31 K | 41.94 | 41.58
292.93 K | – | 41.36
292.94 K | 41.69 | –
298.2 K | 41.4 | 41.1
303.06 K | – | 40.86
303.07 K | 41.17 | –
308.07 K | 40.88 | –
308.1 K | – | 40.6
313.01 K | 40.64 | –
313.04 K | – | 40.36
318.12 K | 40.35 | –
318.17 K | – | 40.07
323.56 K | 40.02 | –
323.62 K | – | 39.72
328.29 K | 39.81 | –
328.31 K | – | 39.45
333.1 K | – | 39.18
333.29 K | 39.49 | –
338.23 K | 39.13 | 38.94
342.51 K | 38.95 | –
342.52 K | – | 38.68
348.1 K | 38.54 | –
348.11 K | – | 38.42
353.72 K | 38.21 | –
353.84 K | – | 38.09
358.24 K | 38.16 | –
358.37 K | – | 37.87
364.6 K | 37.6 | –
364.61 K | – | 37.57

CCCCCCCCCn1cc[n+](C)c1.F[B-](F)(F)F [1-nonyl-3-methylimidazolium tetrafluoroborate]
Settings | mass density [kg/m3]
269.37 K | 1108.1
274.7 K | 1104.14
278.49 K | 1101.14
283.7 K | 1097.76
288.38 K | 1094.04
293.34 K | 1090.55
298.3 K | 1087.19
303.16 K | 1084.03
308.11 K | 1080.68
313.07 K | 1077.08
317.8 K | 1073.8
322.89 K | 1070.47
328.78 K | 1067.01
333.51 K | 1063.61
338.65 K | 1060.05
342.35 K | 1057.5
348.22 K | 1053.82
352.72 K | 1050.55
357.94 K | 1047.5
363.54 K | 1043.86

surface tension liquid-gas [mN/m]
Settings | Ring tensiometer | Willhelmy plate method
269.49 K | 33.05 | –
274.62 K | 32.75 | –
278.42 K | 32.6 | –
283.61 K | – | 32.09
283.73 K | 32.33 | –
288.37 K | – | 31.88
288.41 K | 32.14 | –
293.36 K | 31.82 | 31.67
298.28 K | 31.59 | –
298.31 K | – | 31.45
303.11 K | 31.38 | –
303.12 K | – | 31.29
308.07 K | 31.2 | –
308.11 K | – | 31.1
313.04 K | 30.9 | –
313.06 K | – | 30.81
317.79 K | 30.65 | –
317.83 K | – | 30.66
322.85 K | 30.43 | –
322.9 K | – | 30.39
328.72 K | 30.17 | –
328.74 K | – | 30.12
333.58 K | 29.92 | 29.92
338.63 K | 29.71 | –
338.67 K | – | 29.67
342.37 K | 29.49 | –
342.48 K | – | 29.52
348.12 K | – | 29.3
348.21 K | 29.22 | –
352.1 K | 29.02 | –
353.08 K | – | 29.07
357.88 K | 28.83 | –
357.99 K | – | 28.86
363.56 K | 28.58 | –
363.61 K | – | 28.61
